The nature of data set [1]: Ionisation of apomorphine (pKa, un-ionised proportion against pH). Type of data set: physicochemical. The text has this:
For optimal buccal absorption the apomorphine used should ideally be un-ionised at physiological pH.
If the pH of the product is adjusted to about 8.0, approximately 10% of the apomorphine becomes un-ionised and thus available for absorption. The pH-dependent degree of ionisation of the drug is maintained by a dynamic equilibrium. As un-ionised drug is removed by absorption, more ionised drug becomes un-ionised in order to restore the equilibrium. As a result there is always a sufficient amount of un-ionised drug generated that can be absorbed rapidly.

The test system of data set [2] is "on-off" fluctuations in Parkinson's disease. The note with it: sublingual administration, patients responsive to subcutaneous apomorphine; cited from earlier work.

With `CN1CCc2cccc3c2[C@H]1Cc1ccc(O)c(O)c1-3` [apomorphine], the figures for the “Proportion of apomorphine un-ionised” value in data set [1] (pH 3.5) and in data set [1] (pH adjusted to about 8.0) were “negligible” and “approximately 10%”, respectively. Further, the “Mean time to onset of effect” value in data set [2] was “approximately 30 minutes”.

Source of the values: US8772309B2, “Pharmaceutical formulation of apomorphine for buccal administration” (Amarin Pharmaceuticals Ireland Limited, priority 2005, dated 2014).
